# The source made the active and inactive calls. The calls are words filed in the database; no cut-off is given here.
# Experiments:
# [1] = AUC (0-24hrs) in plasma of BALB/c mouse xenografted with mouse CT26 cells at 2.5 mg/kg, iv by LC-MS/MS analysis; format: ADME, organism-based; parameters: time < 24 hr, route intravenous, dose 2.5 mg/kg; details: in vivo
# [2] = Cmax in tumor of BALB/c mouse xenografted with mouse CT26 cells at 2.5 mg/kg, iv by LC-MS/MS analysis; format: ADME, organism-based, Neoplasm; parameters: route intravenous, dose 2.5 mg/kg
# [3] = biological target: T1, Myosin-IIIb (Homo sapiens) (UniProt Q8WXR4); test: Inhibition of human MYO3B at 2 uM by competition binding assay relative to control; details: values are per cent of control
# T1 sequence (whole entry): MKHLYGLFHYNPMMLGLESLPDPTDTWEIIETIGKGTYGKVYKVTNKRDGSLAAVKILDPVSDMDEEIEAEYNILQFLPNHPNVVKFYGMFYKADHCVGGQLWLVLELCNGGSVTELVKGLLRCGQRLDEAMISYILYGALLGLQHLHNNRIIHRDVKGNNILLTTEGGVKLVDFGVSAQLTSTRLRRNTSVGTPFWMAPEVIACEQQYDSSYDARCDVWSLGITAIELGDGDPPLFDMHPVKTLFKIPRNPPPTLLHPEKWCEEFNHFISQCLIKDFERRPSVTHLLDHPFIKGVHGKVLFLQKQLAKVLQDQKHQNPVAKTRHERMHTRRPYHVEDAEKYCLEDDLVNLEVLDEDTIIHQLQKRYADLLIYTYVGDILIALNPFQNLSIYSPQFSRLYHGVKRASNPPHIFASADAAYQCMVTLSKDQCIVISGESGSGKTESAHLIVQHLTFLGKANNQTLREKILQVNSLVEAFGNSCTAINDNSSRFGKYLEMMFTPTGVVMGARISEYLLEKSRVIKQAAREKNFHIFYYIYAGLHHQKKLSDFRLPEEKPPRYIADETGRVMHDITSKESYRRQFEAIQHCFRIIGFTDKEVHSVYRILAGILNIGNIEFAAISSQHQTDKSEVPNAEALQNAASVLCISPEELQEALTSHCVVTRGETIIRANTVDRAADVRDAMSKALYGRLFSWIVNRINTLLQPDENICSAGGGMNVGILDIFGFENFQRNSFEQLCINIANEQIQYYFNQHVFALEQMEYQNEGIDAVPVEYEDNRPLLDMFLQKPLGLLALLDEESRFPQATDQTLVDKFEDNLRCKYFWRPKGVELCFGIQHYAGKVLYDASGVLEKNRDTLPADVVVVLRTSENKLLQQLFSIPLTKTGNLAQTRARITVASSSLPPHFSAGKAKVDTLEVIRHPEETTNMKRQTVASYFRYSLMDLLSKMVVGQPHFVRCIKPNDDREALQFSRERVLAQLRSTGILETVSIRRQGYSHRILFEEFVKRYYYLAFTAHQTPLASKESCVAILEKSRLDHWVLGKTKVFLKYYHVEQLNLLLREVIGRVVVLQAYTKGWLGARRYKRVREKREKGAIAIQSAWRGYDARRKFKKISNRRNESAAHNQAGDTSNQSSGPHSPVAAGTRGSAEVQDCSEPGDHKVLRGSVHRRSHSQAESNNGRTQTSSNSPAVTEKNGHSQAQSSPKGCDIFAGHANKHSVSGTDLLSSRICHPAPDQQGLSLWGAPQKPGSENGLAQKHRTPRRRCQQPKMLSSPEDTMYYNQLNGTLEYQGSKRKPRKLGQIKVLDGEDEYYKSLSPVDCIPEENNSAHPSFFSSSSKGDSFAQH
# [4] = Plasma C0 in BALB/c mouse xenografted with mouse CT26 cells at 2.5 mg/kg, iv by LC-MS/MS analysis; format: ADME, organism-based
# [5] = biological target: CDK8/Cyclin C (Homo sapiens) (UniProt P49336+P24863); test: Binding affinity to kinase tracer 236 binding to His tagged recombinant human CDK8/cyclinC assessed as rate constant (kon) by TR FRET based assay; format: protein-complex assay
# CDK8/Cyclin C = CDK8/Cyclin C (Homo sapiens, UniProt P49336); test: Inhibition of kinase tracer 236 binding to His tagged recombinant human CDK8/cyclin C incubated for 60 min FRET based LanthaScreen Eu-Kinase binding assay; format: protein-complex assay
# [6] = Half life in tumor of BALB/c mouse xenografted with mouse CT26 cells at 100 mg/kg, po by LC-MS/MS analysis; format: ADME, organism-based, Neoplasm
# [7] = Inhibition of NF kappa B dependent CDK8/CDK19 in HEK293 cell incubated for 3 hrs in presence of TNF-alpha by Spectra max microtitre plate reader; format: cell-based; details: Homo sapiens, HEK293, 3 h
# [8] = Downregulation of CDK8/19 in HEK293 cells assessed as mRNA expression level in MYC gene at 1 uM for 3 hrs pretreatment and measured after 24 hr post wash-off by qt-PCR analysis; format: functional; details: Homo sapiens, time 27 hrs
# HEK293 [9] = test: Inhibition of TNFalpha induced CDK8/19 dependent NF kappa B activity CDK8/19 in double knockout HEK293 cell for 3 hrs by qt-PCR analysis; format: functional, cell-based; details: Homo sapiens
# [10] = Elimination rate constant in plasma of BALB/c mouse xenografted with mouse CT26 cells at 100 mg/kg, po by LC-MS/MS analysis; format: ADME, organism-based
# [11] = Elimination rate constant in plasma of BALB/c mouse xenografted with mouse CT26 cells at 2.5 mg/kg, iv by LC-MS/MS analysis; format: ADME, organism-based
# [12] = Elimination rate constant in tumor of BALB/c mouse xenografted with mouse CT26 cells at 100 mg/kg, po by LC-MS/MS analysis; format: ADME, organism-based, Neoplasm
# [13] = biological target: T2, Cyclin-C/Cyclin-dependent kinase 19 (Homo sapiens) (UniProt Q9BWU1+P24863); test: Binding affinity to recombinant human CDK19/cyclinC assessed as rate constant (kon) by TR FRET based assay; format: protein-complex assay
# HEK293 [14] = test: Effect of compound on HEK293 cells assessed as mRNA expression in CDK8/19 dependent MYC gene in presence of pretreatment with TNFalpha for 2 hr by qPCR analysis; format: functional, cell-based; details: Homo sapiens
# [15] = Tmax in plasma of BALB/c mouse xenografted with mouse CT26 cells at 100 mg/kg, po by LC-MS/MS analysis; format: ADME, organism-based
# CT26 = test: Downregulation of KLF2 gene expression in BALB/c mouse xenografted with mouse CT26 cells at 100 mg/kg, po 2 to 12 hrs […]; format: functional, organism-based; details: time 2-12 hrs, TDE = time-dependent effect
# [16] = Oral bioavailability in plasma of BALB/c mouse xenografted with mouse CT26 cells at 100 mg/kg by LC-MS/MS; format: ADME, organism-based
# [17] = Drug accumulation in lung of BALB/c mouse bearing CT26 tumor model at 100 mg/kg, po for 7 days by LC-MS/MS analysis; format: ADME, organism-based; details: in vivo, 168 h, time 7 day
# MV4-11 = test: Antitumor activity against human luciferase expressing MV4-11 AML cells xenografted in NOD SCID NSG mouse assessed as supression of tumor growth at 40 mg/kg, po bid for 4 weeks by bioluminescence imaging method; format: functional, organism-based
# [18] = biological target: T2, Cyclin-C/Cyclin-dependent kinase 19 (Homo sapiens); test: Binding affinity to recombinant human CDK19/cyclinC assessed as half life by TR FRET based assay; format: protein-complex assay
# Chain of CDK8/Cyclin C (P49336 whole entry): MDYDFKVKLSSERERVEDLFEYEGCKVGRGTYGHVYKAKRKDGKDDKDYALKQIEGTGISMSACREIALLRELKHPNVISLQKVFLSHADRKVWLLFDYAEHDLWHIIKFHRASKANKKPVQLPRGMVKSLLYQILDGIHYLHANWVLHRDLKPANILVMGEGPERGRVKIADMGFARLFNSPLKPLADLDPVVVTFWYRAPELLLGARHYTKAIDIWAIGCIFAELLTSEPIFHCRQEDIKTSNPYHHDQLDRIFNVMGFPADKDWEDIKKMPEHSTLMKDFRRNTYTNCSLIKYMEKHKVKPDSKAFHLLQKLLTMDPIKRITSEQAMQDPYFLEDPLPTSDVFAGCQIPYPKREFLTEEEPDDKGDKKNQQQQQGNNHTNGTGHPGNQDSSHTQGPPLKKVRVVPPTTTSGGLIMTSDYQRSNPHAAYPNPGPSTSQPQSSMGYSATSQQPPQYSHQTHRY
# Chain of CDK8/Cyclin C (P24863 whole entry, further chain): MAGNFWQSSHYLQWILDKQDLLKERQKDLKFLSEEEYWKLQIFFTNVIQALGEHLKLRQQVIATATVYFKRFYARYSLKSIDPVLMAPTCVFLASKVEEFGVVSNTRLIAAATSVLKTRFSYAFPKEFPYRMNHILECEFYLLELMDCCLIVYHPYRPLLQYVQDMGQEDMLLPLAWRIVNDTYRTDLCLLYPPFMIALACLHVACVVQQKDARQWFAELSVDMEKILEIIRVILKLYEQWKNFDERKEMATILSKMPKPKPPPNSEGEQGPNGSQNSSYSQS
smiles,measurement,setting,value
CN1CCN(C(=O)c2ccc3cc(CCNc4ccnc5ccc(C#N)cc45)ccc3c2)CC1,AUC,[1],331 ng·h/mL
same,Cmax,[2],488 ng/mL
same,"residual binding, % of control",[3],31%
same,C0,[4],503 ng/mL
same,K,[5],8.78 10^6/M/s
same,IC50,CDK8/Cyclin C,3.6 nM
same,half-life,[6],7.27 h
same,IC50,[7],56 nM
same,inhibition at 1 µM,[8],30%
same,Activity,HEK293 [9],inactive
same,k el,[10],5.56e-05 s⁻¹
same,k el,[11],0.000258 s⁻¹
same,k el,[12],2.78e-05 s⁻¹
same,K,[13],9.39 10^6/M/s
same,Activity,HEK293 [14],Active
same,Tmax,[15],12 h
same,Activity,CT26,Tde
same,bioavailability,[16],16.5%
same,Drug uptake,[17],Active
same,Activity,MV4-11,Active
same,T1/2,[18],4.25 min
